For 23 compounds, IC50 and GI50 results are on record in patent US20250179059A1 (The Regents of the University of California, priority 2021, published 2025).

Assay [1] addresses T1, human BRD4 bromodomain II (Homo sapiens, UniProt O60885).
T1 construct: human BRD4 bromodomain II [based on Genbank NM_058243, residues 349-460]; host or cells: E. coli
The assay is described as follows: Bromodomain binding assay (AlphaScreen), BRD4 BDII. The procedure, abridged:
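Read-out is AlphaScreen signal (ex 680 nm, em 520-620 nm) from streptavidin donor beads on a biotinylated acetylated histone H4 (aa 1-21) peptide and nickel acceptor beads on the His6-tagged bromodomain. IC50 values come from curve fits of percentage peptide binding against compound concentration.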
For orientation: Alpha assays give light when donor and acceptor beads are brought close together.

The subject of assay [2] is human SKM-1 acute myeloid leukemia cells. The assay is described as follows: SKM-1 antiproliferation cell-based assay (ATPlite). The conditions noted are these: Homo sapiens. The method in brief: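 Log-phase cells in RPMI 1640/15% FBS were seeded at 34722 cells/mL and exposed for 4 days to nine-concentration DMSO serial dilutions in triplicate. Viability was read as ATP luminescence (ATPlite 1step), and IC50 values came from variable-slope non-linear regression.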

Setting [3] is: AlphaScreen assay, Table C2, read-out: BRD4 BDII IC50.
Setting [4] is: SKM-1, 96 h, SKM-1 antiproliferation assay, 4 days, Table C2.
Setting [5] is: BRD4 BDII AlphaScreen assay, read-out: BRD4 BD2 IC50.
Where [6] appears, read: SKM-1, SKM-1 antiproliferation assay.

Read-outs that look alike come from different tables or passages of the source. Bounds are passed on as bounds.

On to `Cn1ccn(-c2ccc(-c3cc(F)cc(-c4ccnc(N5CCC(C)(NS(C)(=O)=O)C5)c4)c3O)cc2Cl)c1=O` (stereo not shown) [Example 792, N-(1-(4-(3′-chloro-5-fluoro-2-hydroxy-4′-(3-methyl-2-oxo-2,3-dihydro-1H-imidazol-1-yl)-[1,1′-biphenyl]-3-yl)pyridin-2-yl)-3-methylpyrrolidin-3-yl)methanesulfonamide], for which the IC50 (in general, the midpoint of a concentration-inhibition curve) in assay [1] (setting [3]) was > 100 nM. For the same compound, the GI50 (in general, the concentration at which growth is held to half of that of the control) in assay [2] (setting [4]) lay in the range of 300 to 3000 nM.

For `Cc1cc(-c2ccc(-n3ccn(C)c3=O)c(Cl)c2)c(O)c(-c2cc(N3CCN(C(C)(C)C)CC3)cc(F)c2F)n1` [Example 1027, 1-(4-(2-(5-(4-(tert-butyl)piperazin-1-yl)-2,3-difluorophenyl)-3-hydroxy-6-methylpyridin-4-yl)-2-chlorophenyl)-3-methyl-1H-imidazol-2(3H)-one], the IC50 in assay [1] (setting [5]) lay within 0.01 to 1 nM. In assay [2] (setting [6]), this compound displayed a GI50 of 0.3 to 30 nM.

Consider `COc1ncc(-c2nc(C)cc(-c3ccc(-n4ccn(C)c4=O)c(C)c3)c2O)cc1N1CCN(C(C)(C)C)CC1` [Example 1015, 1-(4-(5′-(4-(tert-butyl)piperazin-1-yl)-3-hydroxy-6′-methoxy-6-methyl-[2,3′-bipyridin]-4-yl)-2-methylphenyl)-3-methyl-1H-imidazol-2(3H)-one], for which the IC50 in assay [1] (setting [5]) lay within 1 to 10 nM. For the same compound, the GI50 in assay [2] (setting [6]) is 0.3 to 30 nM.

For `Cc1cc(-c2ccc(-n3ccn(C)c3=O)c(Cl)c2)c(O)c(-c2cc(N3CCN(C(C)(C)C)CC3)c3nccn3c2)n1` [Example 971, 1-(4-(2-(8-(4-(tert-butyl)piperazin-1-yl)imidazo[1,2-a]pyridin-6-yl)-3-hydroxy-6-methylpyridin-4-yl)-2-chlorophenyl)-3-methyl-1H-imidazol-2(3H)-one], the IC50 in assay [1] (setting [5]) was 0.01 to 1 nM. This compound gave a GI50 in assay [2] (setting [6]) of 0.3 to 30 nM.

In the case of `Cc1ncc(-c2cc(F)cc(-c3ccc(-n4ccn(C)c4=O)c(Cl)c3)c2O)cc1N1CCN(C(C)(C)C)CC1` [Example 791, 1-(3′-(5-(4-(tert-butyl)piperazin-1-yl)-6-methylpyridin-3-yl)-3-chloro-5′-fluoro-2′-hydroxy-[1,1′-biphenyl]-4-yl)-3-methyl-1,3-dihydro-2H-imidazol-2-one], the IC50 in assay [1] (setting [3]) was 0.01 to 1 nM. This compound gave a GI50 in assay [2] (setting [4]) of 0.3 to 30 nM.

Take `Cn1ccn(-c2ccc(-c3cc(F)cc(-c4ccnc(N5CCC(C)(NCC(F)(F)F)C5)c4)c3O)cc2Cl)c1=O` (stereo not shown) [Example 895]: the concentration for half-maximal inhibition (IC50) in assay [1] (setting [5]) is 1 to 10 nM. For the same compound, the concentration for 50% growth inhibition (GI50) in assay [2] (setting [6]) was 30 to 300 nM.

Take `Cc1cc(-c2ccc(-n3ccn(C)c3=O)c(Cl)c2)c(O)c(-c2ccnc(N3CCC4(CCC(=O)N4)C3)c2)n1` (stereo not shown) [Example 1032, 7-(4-(3-chloro-4-(3-methyl-2-oxo-2,3-dihydro-1H-imidazol-1-yl)phenyl)-3-hydroxy-6-methyl-[2,4′-bipyridin]-2′'-yl)-1,7-diazaspiro[4.4]nonan-2-one]: in assay [1] (setting [5]), the 50% inhibitory concentration (IC50) lay in the range of 0.01 to 1 nM. In assay [2] (setting [6]), this compound showed a GI50 of 0.3 to 30 nM.

With `Cc1cc(-c2ccc(-n3ccn(C)c3=O)c(Cl)c2)c(O)c(-c2cc(N3CCN(C(C)(C)C)CC3)n(C)c(=O)c2)n1` [Example 1009, 6′-(4-(tert-butyl)piperazin-1-yl)-4-(3-chloro-4-(3-methyl-2-oxo-2,3-dihydro-1H-imidazol-1-yl)phenyl)-3-hydroxy-1′,6-dimethyl-[2,4′-bipyridin]-2′(1′H)-one], the 50% inhibitory concentration (IC50) in assay [1] (setting [5]) was 1 to 10 nM. In assay [2] (setting [6]), this compound returned a GI50 of 0.3 to 30 nM.

In the case of `COc1ncc(-c2cc(F)cc(-c3ccc(-n4ccn(C)c4=O)c(Cl)c3)c2O)cc1N1CC[C@]2(CCCN2C(C)C)C1` [Example 958, (R)-1-(3-chloro-5′-fluoro-2′-hydroxy-3′-(5-(1-isopropyl-1,7-diazaspiro[4.4]nonan-7-yl)-6-methoxypyridin-3-yl)-[1,1′-biphenyl]-4-yl)-3-methyl-1,3-dihydro-2H-imidazol-2-one], the IC50 in assay [1] (setting [5]) was in the range of 0.01 to 1 nM. In assay [2] (setting [6]), this compound displayed a GI50 of 0.3 to 30 nM.

As to `Cn1ccn(-c2ccc(-c3cc(F)cc(-c4cccc(N5CCN(C(C)(C)C)CC5)c4)c3O)nc2)c1=O` [Example 944, 1-(6-(3′-(4-(tert-butyl)piperazin-1-yl)-5-fluoro-2-hydroxy-[1,1′-biphenyl]-3-yl)pyridin-3-yl)-3-methyl-1H-imidazol-2(3H)-one], the IC50 in assay [1] (setting [5]) is > 100 nM. In assay [2] (setting [6]), the GI50 was in the range of 300 to 3000 nM.

`CC(C)N1CCN(c2cc(-c3cc(F)cc(-c4ccc(-n5ccn(C)c5=O)c(Cl)c4)c3O)cn(C)c2=O)CC1` [Example 661, 5-(3′-chloro-5-fluoro-2-hydroxy-4′-(3-methyl-2-oxo-2,3-dihydro-1H-imidazol-1-yl)-[1,1′-biphenyl]-3-yl)-3-(4-isopropylpiperazin-1-yl)-1-methylpyridin-2(1H)-one]: in assay [1] (setting [3]), the IC50 fell in the range of 0.01 to 1 nM. For the same compound, the GI50 in assay [2] (setting [4]) fell in the range of 0.3 to 30 nM.

As for `Cn1ccn(-c2ccc(-c3cc(F)cc(-c4ccnc(N5C[C@H](O)[C@@H](F)C5)c4)c3O)cc2Cl)c1=O` [Example 786, 1-(3-chloro-5′-fluoro-3′-(2-((3S,4S)-3-fluoro-4-hydroxypyrrolidin-1-yl)pyridin-4-yl)-2′-hydroxy-[1,1′-biphenyl]-4-yl)-3-methyl-1H-imidazol-2(3H)-one], the IC50 in assay [1] (setting [3]) was 1 to 10 nM. In assay [2] (setting [4]), the GI50 was in the range of 30 to 300 nM.

With `CN(C)[C@@H]1CN(c2cc(-c3cc(F)cc(-c4ccc(-n5ccn(C)c5=O)c(Cl)c4)c3O)ccn2)C[C@H]1O` [Example 752, 1-(3-chloro-3′-(2-((3R,4R)-3-(dimethylamino)-4-hydroxypyrrolidin-1-yl)pyridin-4-yl)-5′-fluoro-2′-hydroxy-[1,1′-biphenyl]-4-yl)-3-methyl-1H-imidazol-2(3H)-one], the IC50 in assay [1] (setting [3]) fell in the range of 0.01 to 1 nM. The GI50 in assay [2] (setting [4]) was 0.3 to 30 nM.

Regarding `C[C@@H]1CN(c2cc(-c3cc(F)cc(-c4ccc(-n5ccn(C)c5=O)c(Cl)c4)c3O)cc(OCCCO)n2)CCN1` [Example 638, (R)-1-(3-chloro-5′-fluoro-2′-hydroxy-3′-(2-(3-hydroxypropoxy)-6-(3-methylpiperazin-1-yl)pyridin-4-yl)-[1,1′-biphenyl]-4-yl)-3-methyl-1H-imidazol-2(3H)-one], the concentration for half-maximal inhibition (IC50) in assay [1] (setting [3]) is 0.01 to 1 nM. The GI50 in assay [2] (setting [4]) lay within 0.3 to 30 nM.

Regarding `O=C1CCCN1c1ccc(-c2cc(Cl)cc(-c3ccnc(N4CCNCC4)c3)c2O)cc1Cl` [Example 274, 1-(3,5′-dichloro-2′-hydroxy-3′-(2-(piperazin-1-yl)pyridin-4-yl)-[1,1′-biphenyl]-4-yl)pyrrolidin-2-one], in assay [1] (setting [3]), the IC50 was in the range of 1 to 10 nM. Besides, in assay [2] (setting [4]), the GI50 lay in the range of 30 to 300 nM.

Take `Cn1ccn(-c2ccc(-c3cc(F)cc(-c4cnc(C(F)F)c(N5CCN(C(C)(C)C)CC5)c4)c3O)cc2Cl)c1=O` [Example 826, 1-(3′-(5-(4-(tert-butyl)piperazin-1-yl)-6-(difluoromethyl)pyridin-3-yl)-3-chloro-5′-fluoro-2′-hydroxy-[1,1′-biphenyl]-4-yl)-3-methyl-1H-imidazol-2(3H)-one]: the IC50 in assay [1] (setting [3]) was 0.01 to 1 nM. For the same compound, the GI50 in assay [2] (setting [4]) fell in the range of 0.3 to 30 nM.

With `CC(C)N1CCN(c2cc(F)cc(-c3cc(F)cc(-c4ccc(-n5ccn(C)c5=O)c(Cl)c4)c3O)c2)CC1` [Example 713, 1-(3-chloro-3″,5′-difluoro-2′-hydroxy-5″-(4-isopropylpiperazin-1-yl)-[1,1′:3′,1″-terphenyl]-4-yl)-3-methyl-1H-imidazol-2(3H)-one], the IC50 in assay [1] (setting [3]) lay in the range of 0.01 to 1 nM. The compound also gave a GI50 in assay [2] (setting [4]) of 0.3 to 30 nM.

Take `Cn1ccn(-c2ccc(-c3cc(F)cc(-c4ccnc(-c5ccncc5)c4)c3O)cc2Cl)c1=O` [Example 481, 1-(3′-([2,4′-bipyridin]-4-yl)-3-chloro-5′-fluoro-2′-hydroxy-[1,1′-biphenyl]-4-yl)-3-methyl-1H-imidazol-2(3H)-one]: in assay [1] (setting [3]), the IC50 lay within 1 to 10 nM. The compound further showed a GI50 in assay [2] (setting [4]) of 300 to 3000 nM.

`CC(=O)Nc1ccc(-c2cccc(-c3ccnc(N4CCN[C@H](C)C4)c3)c2O)cc1Cl` [Example 256, (R)-N-(3-chloro-2′-hydroxy-3′-(2-(3-methylpiperazin-1-yl)pyridin-4-yl)-[1,1′-biphenyl]-4-yl)acetamide]: in assay [1] (setting [3]), the IC50 was in the range of 1 to 10 nM. The concentration for 50% growth inhibition (GI50) in assay [2] (setting [4]) was 300 to 3000 nM.

Consider `CN1CCN(c2ccc(-c3cc(F)cc(-c4cc(C5=CCNCC5)cn(C)c4=O)c3O)cc2Cl)C1=O` [Example 401, 5-(3′-chloro-5-fluoro-2-hydroxy-4′-(3-methyl-2-oxoimidazolidin-1-yl)-[1,1′-biphenyl]-3-yl)-1-methyl-1′,2′,3′,6′-tetrahydro-[3,4′-bipyridin]-6(1H)-one], for which the IC50 in assay [1] (setting [3]) was > 100 nM. The compound further displayed a GI50 in assay [2] (setting [4]) of 300 to 3000 nM.

As for `Cn1ccn(-c2ccc(-c3cc(F)cc(-c4ccnc(N5CCN(C[C@@H](O)CO)CC5)c4)c3O)cc2Cl)c1=O` [Example 610, (R)-1-(3-chloro-3′-(2-(4-(2,3-dihydroxypropyl)piperazin-1-yl)pyridin-4-yl)-5′-fluoro-2′-hydroxy-[1,1′-biphenyl]-4-yl)-3-methyl-1H-imidazol-2(3H)-one], the IC50 in assay [1] (setting [3]) was 0.01 to 1 nM. The GI50 in assay [2] (setting [4]) was in the range of 0.3 to 30 nM.

`Cc1ncc(-c2cc(F)cc(-c3ccc(N4CCN(C)C4=O)c(Cl)c3)c2O)cc1N1CCNCC1` [Example 388, 1-(3-chloro-5′-fluoro-2′-hydroxy-3′-(6-methyl-5-(piperazin-1-yl)pyridin-3-yl)-[1,1′-biphenyl]-4-yl)-3-methylimidazolidin-2-one]: in assay [1] (setting [3]), the 50% inhibitory concentration (IC50) fell in the range of 1 to 10 nM. This compound also displayed a GI50 in assay [2] (setting [4]) of 30 to 300 nM.

Turning to `Cn1ccn(-c2ccc(-c3cc(F)cc(-c4ccnc(N5CCC(O)(C(F)(F)F)C5)c4)c3O)cc2Cl)c1=O` (stereo not shown) [Example 784, 1-(3-chloro-5′-fluoro-2′-hydroxy-3′-(2-(3-hydroxy-3-(trifluoromethyl)pyrrolidin-1-yl)pyridin-4-yl)-[1,1′-biphenyl]-4-yl)-3-methyl-1H-imidazol-2(3H)-one], the IC50 in assay [1] (setting [3]) was in the range of 1 to 10 nM. For the same compound, in assay [2] (setting [4]), the GI50 is 30 to 300 nM.
